# In patent US7078550B2, “Silanyl phenols and naphthols” (Ciba Specialty Chemicals Corporation, priority 2001, dated 2006):
# Experiments:
# Experiment in all cases: Minimum Inhibitory Concentration (MIC) in the agar incorporation test
# Assay type in all cases: cell-based
# [1] = system: Candida albicans ATCC 10231
# Method: (§1) Determination of the Minimum Inhibitory Concentration (MIC) in the Agar Incorporation Test (MIC Test)
# (§2) 0.3 ml of each dilution stage is mixed with 15 ml of still-liquid nutrient medium. After the nutrient medium has solidified, 10 μl of each of the following organism dilutions of the test strains in 0.85% NaCl solution are spotted onto the agar medium:
# (§3) The plates are incubated for 24 hours at 37° C. (A. niger 3 days at 28° C.) and then the highest dilution (lowest concentration) of the test substance at which growth is just no longer discernible (corresponds to the MIC) is determined.
# [2] = system: Aspergillus niger ATCC 6275; conditions: ATCC6275, 72 h, Sabouraud 4% glucose agar, 3 days at 28° C.
# Method: as §1, §2, §3
# [3] = system: Escherichia coli NCTC 8196; conditions: NCTC8196, 24 hours at 37° C.
# Method: as §1, §2, §3
# [4] = system: Pseudomonas aeruginosa CIP A-22; conditions: CIPA22, 24 hours at 37° C.
# Method: as §1, §2, §3
# [5] = system: Staphylococcus aureus ATCC 9144; conditions: ATCC9144, 24 hours at 37° C.
# Method: as §1, §2, §3
# [6] = system: Corynebacterium xerosis ATCC 373; conditions: ATCC373, 24 h
# Method: (§4) Determination of the Minimum Inhibitory Concentration (MIC) in the Agar Incorporation Test (MIC Test) [table] Test Principle: 0.3 ml of each dilution stage is mixed with 15 ml of still-liquid nutrient medium. After the nutrient medium has solidified, 10 μl of each of the following organism dilutions of the test strains in 0.85% NaCl solution are spotted onto the agar medium: The plates are incubated for 24 hours at 37° C. (A. niger 3 days at 28° C.) and then the highest dilution (lowest concentration) of the test substance at which growth is just no longer discernible (corresponds to the MIC) is determined.
# [7] = system: Enterococcus hirae ATCC 10541; conditions: ATCC10541
# Method: as §4
# [8] = system: Staphylococcus hominis DSM 20328; conditions: DSM20328
# Method: as §4
# [9] = system: Escherichia coli ATCC 10536; conditions: ATCC10536
# Method: as §4
# [10] = ATCC10231, Candida albicans ATCC 10231, 24 hours at 37° C.
# [11] = 24 h, Candida albicans ATCC 1023 (as printed in Table 3e)
SMILES,"MIC [1, 10]",MIC [2],MIC [3],MIC [4],MIC [5],MIC [6],MIC [7],MIC [8],MIC [9],"MIC [1, 11]"
CC(Cc1cc(Oc2ccccc2)ccc1O)C[Si](C)(O[Si](C)(C)C)O[Si](C)(C)C (stereo not drawn) [(101)],> 1000 µg/mL,> 1000 µg/mL,> 1000 µg/mL,> 1000 µg/mL,1000 µg/mL,–,–,–,–,–
COc1cc(CCC[Si](C)(O[Si](C)(C)C)O[Si](C)(C)C)ccc1O [(102)],> 1000 µg/mL,> 1000 µg/mL,> 1000 µg/mL,> 1000 µg/mL,> 1000 µg/mL,–,–,–,–,–
CC(Cc1cc(-c2ccccc2)ccc1O)C[Si](C)(O[Si](C)(C)C)O[Si](C)(C)C (stereo not drawn) [(103)],> 560 µg/mL,> 560 µg/mL,> 560 µg/mL,> 560 µg/mL,> 560 µg/mL,17.5 µg/mL,> 560 µg/mL,> 560 µg/mL,–,–
C[Si](C)(C)O[Si](C)(CCCc1ccccc1O)O[Si](C)(C)C [(104)],> 1000 µg/mL,> 1000 µg/mL,> 1000 µg/mL,> 1000 µg/mL,8 µg/mL,–,–,–,–,–
C[Si](C)(C)O[Si](C)(C)O[Si](C)(C)CCCc1ccccc1O [(105)],> 1000 µg/mL,> 1000 µg/mL,> 1000 µg/mL,> 1000 µg/mL,15.6 µg/mL,3.9 µg/mL,15.6 µg/mL,> 1000 µg/mL,–,–
C[Si](C)(C)O[Si](C)(C)CCCc1ccccc1O [(106)],> 1000 µg/mL,31.2 µg/mL,> 1000 µg/mL,> 1000 µg/mL,7.8 µg/mL,7.8 µg/mL,15.6 µg/mL,31.2 µg/mL,–,–
C[Si](C)(CCCc1ccccc1O)c1ccccc1 [(107)],125 µg/mL,15.6 µg/mL,> 1000 µg/mL,> 1000 µg/mL,1.9 µg/mL,1.9 µg/mL,3.9 µg/mL,7.8 µg/mL,–,–
CC(Cc1cc(C(C)(C)C)ccc1O)C[Si](C)(O[Si](C)(C)C)O[Si](C)(C)C (stereo not drawn) [(108)],> 1000 µg/mL,> 1000 µg/mL,> 1000 µg/mL,> 1000 µg/mL,–,8 µg/mL,–,–,–,–
COc1ccc(O)c(CCC[Si](C)(O[Si](C)(C)C)O[Si](C)(C)C)c1 [(110)],> 1000 µg/mL,> 1000 µg/mL,> 1000 µg/mL,> 1000 µg/mL,250 µg/mL,4 µg/mL,–,–,–,–
COc1ccc(O)c(CCC[Si](C)(C)c2ccccc2)c1 [(111)],> 1000 µg/mL,> 1000 µg/mL,> 1000 µg/mL,> 1000 µg/mL,125 µg/mL,8 µg/mL,–,–,–,–
C[Si](C)(C)O[Si](C)(C)O[Si](C)(C)CCCc1cc(Cl)ccc1O [(112)],> 1000 µg/mL,> 1000 µg/mL,> 1000 µg/mL,> 1000 µg/mL,7 µg/mL,2 µg/mL,–,–,–,–
Cc1ccc(O)c(CCC[Si](C)(C)O[Si](C)(C)C)c1 [(114)],> 1000 µg/mL,> 1000 µg/mL,> 1000 µg/mL,> 1000 µg/mL,8 µg/mL,8 µg/mL,–,–,–,–
C[Si](C)(C)O[Si](C)(C)CCCc1cc(Cl)ccc1O [(115)],500 µg/mL,500 µg/mL,250 µg/mL,> 1000 µg/mL,15 µg/mL,8 µg/mL,–,–,–,–
C[Si](C)(C)O[Si](C)(CCCc1ccc2ccccc2c1O)O[Si](C)(C)C [(116)],–,> 1000 µg/mL,–,–,> 1000 µg/mL,500 µg/mL,–,> 1000 µg/mL,> 1000 µg/mL,> 1000 µg/mL
CC(Cc1ccc2ccccc2c1O)C[Si](C)(O[Si](C)(C)C)O[Si](C)(C)C (stereo not drawn) [(117)],–,> 1000 µg/mL,–,–,> 1000 µg/mL,1000 µg/mL,–,> 1000 µg/mL,> 1000 µg/mL,> 1000 µg/mL
CC[Si](CC)(CC)CC(C)Cc1cc(Oc2ccccc2)ccc1O (stereo not drawn) [(118)],> 1000 µg/mL,> 1000 µg/mL,> 1000 µg/mL,> 1000 µg/mL,4 µg/mL,–,–,–,–,–
C[Si](C)(CCCc1cc(Cl)ccc1O)c1ccccc1 [(119)],62 µg/mL,62 µg/mL,> 1000 µg/mL,> 1000 µg/mL,4 µg/mL,2 µg/mL,–,–,–,–
CC(Cc1cc(Oc2ccccc2)ccc1O)C[Si](C)(C)c1ccccc1 (stereo not drawn) [(120)],> 1000 µg/mL,> 1000 µg/mL,> 1000 µg/mL,> 1000 µg/mL,8 µg/mL,4 µg/mL,–,–,–,–
CC(Cc1ccc2ccccc2c1O)C[Si](C)(C)c1ccccc1 (stereo not drawn) [(121)],–,> 1000 µg/mL,–,–,> 1000 µg/mL,250 µg/mL,–,> 1000 µg/mL,> 1000 µg/mL,> 1000 µg/mL
